Assays:
[1] = Stability of the compound in rat liver microsomes assessed as parent compound remaining measured after 0.5 hrs; format: ADME, Microsome; settings: read-out: Stability
[2] = AUC (0 to 24 hrs) in male Crl:CD1(ICR) mouse at 1000 mg/kg administered for 6 months measured 24 hrs post last dose; format: ADME, organism-based; parameters: dose 1000 mg/kg, time < 24 hr; settings: in vivo
[3] = Cmax in Sprague-Dawley rat at 1 mg/kg, iv or po by LC-MS/MS analysis; format: ADME, organism-based; settings: in vivo
[4] = Cmax in male Crl:CD1(ICR) mouse at 1000 mg/kg administered for 6 months measured 24 hrs post last dose; format: ADME, organism-based; parameters: dose 1000 mg/kg; settings: in vivo
[5] = Stability of the compound in mouse liver microsomes assessed as parent compound remaining measured after 0.5 hrs; format: ADME, Microsome; settings: microsomes, 0.5 h
[6] = Toxicity in cynomolgus monkey assessed as effect on cardiovascular system by measuring NOEL administered as single dose measured after 1 to 24 hrs by telemetry; parameters: species or system Macaca fascicularis; settings: in vivo
[7] = Volume of distribution at steady state in ddy mouse at 3 mg/kg, iv by LC-MS/MS analysis; format: ADME, organism-based; settings: in vivo, read-out: Vdss
[8] = Cmax in female cynomolgus monkey at 1000 mg/kg administered for 9 months measured 24 hrs post last dose with 1 month recovery; format: ADME, organism-based, Macaca fascicularis; parameters: dose 1000 mg/kg; settings: in vivo
[9] = Volume of distribution at steady state in ddy mouse at 1 mg/kg, iv by LC-MS/MS analysis; format: ADME, organism-based; settings: in vivo, read-out: Vdss
[10] = Toxicity in Crl:CD1(ICR) mouse assessed as effect on motor coordination by measuring NOEL administered as single dose measured after 0.5 to 2 hrs by rotarod test; settings: in vivo
[11] = AUC (infinity) in cynomolgus monkey at 1 mg/kg, iv or po by LC-MS/MS analysis; format: ADME, organism-based, Macaca fascicularis; settings: in vivo
[12] = AUC (0 to 24 hrs) in male cynomolgus monkey at 1000 mg/kg administered for 9 months measured 24 hrs post last dose with 1 month recovery; format: ADME, organism-based, Macaca fascicularis; parameters: time < 24 hr, dose 1000 mg/kg; settings: in vivo
[13] = Cmax in Beagle dog at 1 mg/kg, iv or po by LC-MS/MS analysis; format: ADME, organism-based, Canis lupus familiaris; settings: in vivo
[14] = Cmax in female Crl:CD1(ICR) mouse at 1000 mg/kg administered for 6 months measured 24 hrs post last dose with 1 month recovery; format: ADME, organism-based; parameters: dose 1000 mg/kg; settings: in vivo
[15] = Clearance in cynomolgus monkey at 1 mg/kg, iv by LC-MS/MS analysis; format: ADME, organism-based, Macaca fascicularis; settings: in vivo
[16] = Chronic toxicity in female cynomolgus monkey assessed as NOAEL administered for 9 months; parameters: species or system Macaca fascicularis; settings: in vivo
[17] = Oral bioavailability in Beagle dog at 1 mg/kg by LC-MS/MS analysis; format: ADME, organism-based, Canis lupus familiaris; settings: in vivo
[18] = Volume of distribution at steady state in Beagle dog at 1 mg/kg, iv by LC-MS/MS analysis; format: ADME, organism-based, Canis lupus familiaris; settings: in vivo, read-out: Vdss
[19] = Cmax in ddy mouse at 3 mg/kg, iv or po by LC-MS/MS analysis; format: ADME, organism-based; settings: in vivo
[20] = Stability of the compound in human liver microsomes assessed as parent compound remaining measured after 0.5 hrs; format: ADME, Microsome; settings: read-out: Stability
[21] = Half life in ddy mouse at 1 mg/kg, iv or po by LC-MS/MS analysis; format: ADME, organism-based; settings: in vivo
[22] = Chronic toxicity in male Crl:CD1(ICR) mouse assessed as NOAEL administered for 6 months; settings: in vivo
[23] = Half life in ddy mouse at 3 mg/kg, iv or po by LC-MS/MS analysis; format: ADME, organism-based; settings: in vivo
[24] = Tmax in male Crl:CD1(ICR) mouse at 1000 mg/kg administered for 6 months measured 24 hrs post last dose; format: ADME, organism-based; settings: in vivo
[25] = Tmax in Beagle dog at 1 mg/kg, iv or po by LC-MS/MS analysis; format: ADME, organism-based, Canis lupus familiaris; settings: in vivo
[26] = AUC (0 to 24 hrs) in female Crl:CD1(ICR) mouse at 1000 mg/kg administered for 6 months measured 24 hrs post last dose with 1 month recovery; format: ADME, organism-based; parameters: dose 1000 mg/kg, time < 24 hr; settings: in vivo
[27] = Stability of the compound in dog liver microsomes assessed as parent compound remaining measured after 0.5 hrs; format: ADME, Canis lupus familiaris, Microsome; settings: read-out: Stability
[28] = AUC (infinity) in Sprague-Dawley rat at 1 mg/kg, iv or po by LC-MS/MS analysis; format: ADME, organism-based; settings: in vivo
[29] = Clearance in ddy mouse at 1 mg/kg, iv by LC-MS/MS analysis; format: ADME, organism-based; settings: in vivo
[30] = AUC (infinity) in ddy mouse at 3 mg/kg, iv or po by LC-MS/MS analysis; format: ADME, organism-based; settings: in vivo
[31] = Tmax in female cynomolgus monkey at 1000 mg/kg administered for 9 months measured 24 hrs post last dose with 1 month recovery; format: ADME, organism-based, Macaca fascicularis; settings: in vivo
[32] = Tmax in female Crl:CD1(ICR) mouse at 1000 mg/kg administered for 6 months measured 24 hrs post last dose with 1 month recovery; format: ADME, organism-based; settings: in vivo
[33] = Oral bioavailability in ddy mouse at 3 mg/kg by LC-MS/MS analysis; format: ADME, organism-based; settings: in vivo
[34] = Tmax in ddy mouse at 1 mg/kg, iv or po by LC-MS/MS analysis; format: ADME, organism-based; settings: in vivo
[35] = Toxicity in Crl:CD1(ICR) mouse assessed as effect on spontaneous locomotor activity by measuring NOEL administered as single dose measured at 10 mins interval starting from 2 to 3 hrs; settings: in vivo
[36] = AUC (0 to 24 hrs) in female cynomolgus monkey at 1000 mg/kg administered for 9 months measured 24 hrs post last dose with 1 month recovery; format: ADME, organism-based, Macaca fascicularis; parameters: time < 24 hr, dose 1000 mg/kg; settings: in vivo
[37] = Chronic toxicity in female Crl:CD1(ICR) mouse assessed as NOAEL administered for 6 months; settings: in vivo
[38] = Half life in Sprague-Dawley rat at 1 mg/kg, iv or po by LC-MS/MS analysis; format: ADME, organism-based; settings: in vivo
[39] = Cmax in cynomolgus monkey at 1 mg/kg, iv or po by LC-MS/MS analysis; format: ADME, organism-based, Macaca fascicularis; settings: in vivo
[40] = Toxicity in Crl:CD1(ICR) mouse assessed as effect on central nervous system by measuring NOEL administered as single dose measured up to 24 hrs by Irwin's test; settings: in vivo
[41] = Tmax in cynomolgus monkey at 1 mg/kg, iv or po by LC-MS/MS analysis; format: ADME, organism-based, Macaca fascicularis; settings: in vivo
[42] = Aqueous thermodynamic solubility of the compound at pH 6.8 measured after 4 hrs by UV-HPLC analysis; format: physicochemical; settings: buffer, pH 6.8, 4 h; 4 h
[43] = Volume of distribution at steady state in Sprague-Dawley rat at 1 mg/kg, iv by LC-MS/MS analysis; format: ADME, organism-based; settings: in vivo, read-out: Vdss
[44] = Half life in cynomolgus monkey at 1 mg/kg, iv or po by LC-MS/MS analysis; format: ADME, organism-based, Macaca fascicularis; settings: in vivo
[45] = Oral bioavailability in cynomolgus monkey at 1 mg/kg by LC-MS/MS analysis; format: ADME, organism-based, Macaca fascicularis; settings: in vivo
[46] = Half life in Beagle dog at 1 mg/kg, iv or po by LC-MS/MS analysis; format: ADME, organism-based, Canis lupus familiaris; settings: in vivo
[47] = Tmax in male cynomolgus monkey at 1000 mg/kg administered for 9 months measured 24 hrs post last dose with 1 month recovery; format: ADME, organism-based, Macaca fascicularis; settings: in vivo
[48] = Cmax in ddy mouse at 1 mg/kg, iv or po by LC-MS/MS analysis; format: ADME, organism-based; settings: in vivo
[49] = Chronic toxicity in male cynomolgus monkey assessed as NOAEL administered for 9 months; parameters: species or system Macaca fascicularis; settings: in vivo
[50] = Cmax in male cynomolgus monkey at 1000 mg/kg administered for 9 months measured 24 hrs post last dose with 1 month recovery; format: ADME, organism-based, Macaca fascicularis; parameters: dose 1000 mg/kg; settings: in vivo
[51] = Tmax in ddy mouse at 3 mg/kg, iv or po by LC-MS/MS analysis; format: ADME, organism-based; settings: in vivo
[52] = Clearance in Sprague-Dawley rat at 1 mg/kg, iv by LC-MS/MS analysis; format: ADME, organism-based; settings: in vivo
[53] = Toxicity in Crl:CD1(ICR) mouse assessed as effect on respiratory system by measuring NOEL administered as single dose measured after 0.5 to 24 hrs by WBP method; settings: in vivo
[54] = Clearance in ddy mouse at 3 mg/kg, iv by LC-MS/MS analysis; format: ADME, organism-based; settings: in vivo
[55] = Clearance in Beagle dog at 1 mg/kg, iv by LC-MS/MS analysis; format: ADME, organism-based, Canis lupus familiaris; settings: in vivo
[56] = AUC (infinity) in Beagle dog at 1 mg/kg, iv or po by LC-MS/MS analysis; format: ADME, organism-based, Canis lupus familiaris; settings: in vivo
[57] = Oral bioavailability in ddy mouse at 1 mg/kg by LC-MS/MS analysis; format: ADME, organism-based; settings: in vivo
[58] = Stability of the compound in monkey liver microsomes assessed as parent compound remaining measured after 0.5 hrs; format: ADME, Macaca mulatta, Microsome; settings: rhesus monkey, read-out: Stability
[59] = Oral bioavailability in Sprague-Dawley rat at 1 mg/kg by LC-MS/MS analysis; format: ADME, organism-based; settings: in vivo
[60] = Volume of distribution at steady state in cynomolgus monkey at 1 mg/kg, iv by LC-MS/MS analysis; format: ADME, organism-based, Macaca fascicularis; settings: in vivo, read-out: Vdss
[61] = Tmax in Sprague-Dawley rat at 1 mg/kg, iv or po by LC-MS/MS analysis; format: ADME, organism-based; settings: in vivo
[62] = AUC (infinity) in ddy mouse at 1 mg/kg, iv or po by LC-MS/MS analysis; format: ADME, organism-based; settings: in vivo

For `Cn1nccc1[C@H]1CCCC[C@@H]1Oc1cc(F)c(S(=O)(=O)Nc2ccncn2)cc1Cl` [DS-1971], the remaining at 0.5 h [1] was 94%, the AUC(0-t) at 24 h [2] was 65.9 µM·h and the Cmax [3] was 0.103 µM. For the same compound, the Cmax [4] was 9.44 µM, the Stability [5] was 92% and the NOAEL [6] was 1000 mg/kg. It also gave a Vd [7] of 0.565 L/kg, a Cmax [8] of 22.5 µM and a Vd [9] of 1.37 L/kg. The NOAEL [10] was 1000 mg/kg, the AUC(0-inf) [11] was 2.06 µM·h and the AUC(0-t) at 24 h [12] was 146 µM·h. It also gave a Cmax [13] of 1.71 µM, a Cmax [14] of 105 µM and a clearance [15] of 0.393 L/h/kg. It also gave an NOAEL at 9 months [16] of 1000 mg/kg, a bioavailability [17] of 77% and a Vd [18] of 0.57 L/kg. For the same compound, the Cmax [19] was 0.464 µM, the remaining at 0.5 h [20] was 66% and the half-life [21] was 2.02 h. It also gave an NOAEL at 6 months [22] of 1000 mg/kg, a half-life [23] of 1.54 h and a Tmax [24] of 0.5 h. The Tmax [25] was 0.5 h, the AUC(0-t) at 24 h [26] was 1400 µM·h and the remaining at 0.5 h [27] was 95%. It also gave an AUC(0-inf) [28] of 0.103 µM·h, a clearance [29] of 4.72 L/h/kg and an AUC(0-inf) [30] of 0.277 µM·h. It also gave a Tmax [31] of 1.2 h, a Tmax [32] of 6 h and a bioavailability [33] of 11%. It also gave a Tmax [34] of 5 min, an NOAEL [35] of 1000 mg/kg and an AUC(0-t) at 24 h [36] of 100 µM·h. The NOAEL at 6 months [37] was 1000 mg/kg, the half-life [38] was 0.77 h and the Cmax [39] was 1.57 µM. The NOAEL at 24 h [40] was 1000 mg/kg, the Tmax [41] was 0.83 h and the Therm_solubility [42] was 1500 µM. It also gave a Vd [43] of 1.2 L/kg, a half-life [44] of 3.69 h and a bioavailability [45] of 35%. The half-life [46] was 4 h, the Tmax [47] was 1.2 h and the Cmax [48] was 0.105 µM. The NOAEL at 9 months [49] was 1000 mg/kg, the Cmax [50] was 28.1 µM and the Tmax [51] was 0.25 h. The clearance [52] was 2.82 L/h/kg, the NOAEL [53] was 1000 mg/kg and the clearance [54] was 2.72 L/h/kg. The clearance [55] was 0.522 L/h/kg, the AUC(0-inf) [56] was 3.23 µM·h and the bioavailability [57] was 15%. It also gave a remaining at 0.5 h [58] of 78%, a bioavailability [59] of 16% and a Vd [60] of 0.15 L/kg. It also gave a Tmax [61] of 0.5 h and an AUC(0-inf) [62] of 0.0689 µM·h.

— ChEMBL document CHEMBL4622872, “Discovery of DS-1971a, a Potent, Selective NaV1.7 Inhibitor” (J Med Chem, 2020)
